The values below are quoted from earlier work in patent publication US20240207251A1, “PHARMACEUTICAL COMPOSITION CONTAINING ARTESUNATE OR SALT THEREOF AND PYRONARIDINE OR SALT THEREOF, FOR ANTIPYRESIS, ANTI-INFLAMMATORY EFFICACY, ANTI-VIRAL EFFICACY AND TREATMENT OR PREVENTION OF COVID-19, AND METHOD USING SAME” (priority 2021, published 2024).

In one data set the test system is SARS-COV 2. To be noted: reported by Joon-Yong Bae et al., bioRxiv, Jul. 28, 2020.
A further data set has as its system influenza virus. To be noted: reported by Joon-Yong Bae et al., bioRxiv, Jul. 28, 2020.

Turning to `C[C@H]1[C@H](OC(=O)CCC(=O)O)O[C@@H]2O[C@@]3(C)CC[C@H]4[C@H](C)CC[C@@H]1[C@@]24OO3` [artesunate, dihydroartemisinine-12-alpha-succinate], in the data set on SARS-COV 2, the “in vitro anti-viral action on COVID-19” value is given as “in vitro anti-viral action”. In addition, the “in vitro anti-viral action on influenza” value in the data set on influenza virus is listed as “in vitro anti-viral action”.

With `COc1ccc2nc3cc(Cl)ccc3c(Nc3cc(CN4CCCC4)c(O)c(CN4CCCC4)c3)c2n1` [pyronaridine, 4-[(7-chloro-2-methoxybenzo[b]-1,5-naphthyridin-10-yl)amino]-2,6-bis(1-pyrrolidinylmethyl)phenyl], the “in vitro anti-viral action on COVID-19” value with SARS-COV 2 is recorded as “in vitro anti-viral action”. In the data set on influenza virus, the “in vitro anti-viral action on influenza” value is reported as “in vitro anti-viral action”.
